Reference: patent US12344597B2, “Alkoxy-substituted pyridinyl derivatives as LPA1 receptor antagonists and their use in the treatment of fibrosis” (IDORSIA PHARMACEUTICALS LTD, priority 2018, dated 2025)

Target: human LPA1 receptor (Homo sapiens (Human), UniProt Q92633)
Assay: Beta-arrestin recruitment assay to determine IC50 values for human LPAR1
Type: cell-based
Conditions: antagonist mode, Tango EDG2-bla U2OS cells, LPA 18:1 500 nM final
Text: Beta-Arrestin Recruitment Assay to Determine IC50 Values for Human LPAR1
The Tango™ EDG2-bla U2OS cells are obtained from Invitrogen. These cells contain the human LPA1 receptor cDNA linked to a TEV protease site and a Gal4-VP16 transcription factor integrated into the Tango™ GPCR-bla U2OS parental cell line. This parental cell line stably expresses a beta-arrestin/TEV protease fusion protein and the beta-lactamase (bla) reporter gene under the control of a UAS response element. Upon LPA (agonist) binding, LPA1 receptor gets activated, leading to arrestin-protease recruitment and proteolytic release of the transcription factor: The transcription factor then regulates transcription of a beta-lactamase reporter construct, which is measured upon addition of the live-cell substrate.
10′000 Tango™ EDG2-bla U2OS cells are seeded in a 384-well black with clear bottom plate in 30 μl Freestyle 293 Expression Medium (Invitrogen) and incubated for 20 h at 37° C., 5% CO2. […] IC50 is the concentration of antagonist inhibiting 50% of the maximal response.

human LPA1 receptor, sequence (Q92633 whole entry): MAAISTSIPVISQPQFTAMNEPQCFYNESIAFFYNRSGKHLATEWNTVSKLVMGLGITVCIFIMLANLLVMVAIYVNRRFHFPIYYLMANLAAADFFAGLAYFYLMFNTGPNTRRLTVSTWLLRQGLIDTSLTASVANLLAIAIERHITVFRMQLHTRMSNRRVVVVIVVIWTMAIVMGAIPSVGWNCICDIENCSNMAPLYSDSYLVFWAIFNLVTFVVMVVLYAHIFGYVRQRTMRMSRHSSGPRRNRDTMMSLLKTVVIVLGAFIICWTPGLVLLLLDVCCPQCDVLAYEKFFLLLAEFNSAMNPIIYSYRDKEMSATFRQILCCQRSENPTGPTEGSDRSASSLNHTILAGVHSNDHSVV

Row | Compound | IC50 [nM]
1 | COC(=O)C1(CN2CC(C(=O)Nc3ccc(C)nc3OC(F)F)(c3ccccc3C(C)C)C2)CC1 [Ex 11-26, methyl 1-((3-((2-(difluoromethoxy)-6-methylpyridin-3-yl)carbamoyl)-3-(2-isopropylphenyl)azetidin-1-yl)methyl)cyclopropane-1-carboxylate] | 400
2 | CCN(CC(=O)O)CC(=O)N1CC(C(=O)Nc2ccc(C)nc2OC(F)F)(c2ccccc2C(C)C)C1 [Ex 58, N-(2-(3-((2-(difluoromethoxy)-6-methylpyridin-3-yl)carbamoyl)-3-(2-isopropylphenyl)azetidin-1-yl)-2-oxoethyl)-N-ethylglycine] | 48
3 | Cc1ccc(NC(=O)C2(c3nccnc3C(C)C)CN(S(N)(=O)=O)C2)c(OC(F)F)n1 [Ex 69, N-(2-(difluoromethoxy)-6-methylpyridin-3-yl)-3-(3-isopropylpyrazin-2-yl)-1-sulfamoylazetidine-3-carboxamide] | 27
4 | Cc1ccc(NC(=O)C2(c3ccccc3C(C)C)CCN(CCO)CC2)c(OC(F)F)n1 [Ex 11-3, N-(2-(difluoromethoxy)-6-methylpyridin-3-yl)-1-(2-hydroxyethyl)-4-(2-isopropylphenyl)piperidine-4-carboxamide] | 32
5 | CONC(=O)CC(=O)N1CC(C(=O)Nc2ccc(C)nc2OC(F)F)(c2ccccc2C(C)C)C1 [Ex 12-125, N-(2-(difluoromethoxy)-6-methylpyridin-3-yl)-3-(2-isopropylphenyl)-1-(3-(methoxyamino)-3-oxopropanoyl)azetidine-3-carboxamide] | 35
6 | Cc1ccc(NC(=O)C2(c3ccccc3C3CCCC3)CNC2)c(OC(F)F)n1 [Ex 25, 3-(2-cyclopentylphenyl)-N-(2-(difluoromethoxy)-6-methylpyridin-3-yl)azetidine-3-carboxamide] | 8.6
7 | CCCc1ccccc1C1(C(=O)Nc2ccc(C)nc2OC(F)F)CNC1 [Ex 29, N-(2-(difluoromethoxy)-6-methylpyridin-3-yl)-3-(2-propylphenyl)azetidine-3-carboxamide] | 420
8 | Cc1ccc(NC(=O)C2(c3ccccc3C3CCC3)CNC2)c(OC(F)F)n1 [Ex 24, 3-(2-cyclobutylphenyl)-N-(2-(difluoromethoxy)-6-methylpyridin-3-yl)azetidine-3-carboxamide] | 31
9 | Cc1ccc(NC(=O)C2(c3ccccc3C(C)C)CN(C(=O)CCOCCOCCO)C2)c(OC(F)F)n1 [Ex 12-51, N-(2-(difluoromethoxy)-6-methylpyridin-3-yl)-1-(3-(2-(2-hydroxyethoxy)ethoxy)propanoyl)-3-(2-isopropylphenyl)azetidine-3-carboxamide] | 360
10 | Cc1ccc(NC(=O)C2(c3ccccc3C(C)C)CCN(C(=O)Cc3cc(O)n[nH]3)CC2)c(OC(F)F)n1 [Ex 12-25, N-(2-(difluoromethoxy)-6-methylpyridin-3-yl)-1-(2-(3-hydroxy-1H-pyrazol-5-yl)acetyl)-4-(2-isopropylphenyl)piperidine-4-carboxamide] | 15
11 | COC(=O)CC1(CN2CC(C(=O)Nc3ccc(C)nc3OC(F)F)(c3ccccc3C(C)C)C2)CC1 [Ex 11-67, Methyl 2-(1-((3-((2-(difluoromethoxy)-6-methylpyridin-3-yl)carbamoyl)-3-(2-isopropylphenyl)azetidin-1-yl)methyl)cyclopropyl)acetate] | 326
12 | Cc1ccc(NC(=O)C2(c3ccccc3C(C)C)CN(Cc3n[nH]cc3C(=O)O)C2)c(OC(F)F)n1 [Ex 11-40, 3-((3-((2-(difluoromethoxy)-6-methylpyridin-3-yl)carbamoyl)-3-(2-isopropylphenyl)azetidin-1-yl)methyl)-1H-pyrazole-4-carboxylic acid] | 270
13 | Cc1ccc(NC(=O)C2(c3ccccc3C(C)C)CN(CCCC(C)(C)N)C2)c(OC(F)F)n1 [Ex 11-94, 1-(4-amino-4-methylpentyl)-N-(2-(difluoromethoxy)-6-methylpyridin-3-yl)-3-(2-isopropylphenyl)azetidine-3-carboxamide] | 64
14 | N-(2-(difluoromethoxy)-6-methylpyridin-3-yl)-1-(3-(hydroxyamino)propanoyl)-3-(2-isopropylphenyl)azetidine-3-carboxamide [Ex 12-133] | 140
15 | Cc1ccc(NC(=O)C2(c3ccccc3C3CCOCC3)CN(c3nc(C(=O)O)co3)C2)c(OC(F)F)n1 [Ex 32, 2-(3-((2-(difluoromethoxy)-6-methylpyridin-3-yl)carbamoyl)-3-(2-(tetrahydro-2H-pyran-4-yl)phenyl)azetidin-1-yl)oxazole-4-carboxylic acid] | 447

Results, then the compound that gave them:

Row | IC50 [nM] | Compound
16 | 17 | CC(C)c1ccccc1C1(C(=O)Nc2ncc(Cl)cc2OC(F)F)CN(CCC(C)(C)C(=O)O)C1 [Ex 78-2, 4-(3-((5-chloro-3-(difluoromethoxy)pyridin-2-yl)carbamoyl)-3-(2-isopropylphenyl)azetidin-1-yl)-2,2-dimethylbutanoic acid]
17 | 86 | Cc1ccc(NC(=O)C2(c3ccccc3C(C)C)CN(C(=O)N[C@H](C)C(=O)O)C2)c(OC(F)F)n1 [Ex 17-24, (3-((2-(difluoromethoxy)-6-methylpyridin-3-yl)carbamoyl)-3-(2-isopropylphenyl)azetidine-1-carbonyl)-D-alanine]
18 | 104 | COc1cc(Br)cnc1NC(=O)C1(c2ccccc2C(C)C)CN(C(=O)CC(C)(C)C(=O)O)C1 [Ex 79-5, 4-(3-((5-bromo-3-methoxypyridin-2-yl)carbamoyl)-3-(2-isopropylphenyl)azetidin-1-yl)-2,2-dimethyl-4-oxobutanoic acid]
19 | 280 | COC(=O)C1(CS(=O)(=O)N2CC(C(=O)Nc3ccc(C)nc3OC(F)F)(c3ccccc3C(C)C)C2)COC1 [Ex 13-15, methyl 3-(((3-((2-(difluoromethoxy)-6-methylpyridin-3-yl)carbamoyl)-3-(2-isopropylphenyl)azetidin-1-yl)sulfonyl)methyl)oxetane-3-carboxylate]
20 | 20 | CC(C)c1ccccc1C1(C(=O)Nc2cccnc2OC(F)F)CN(S(=O)(=O)CCC(=O)O)C1 [Ex 13-10, 3-((3-((2-(difluoromethoxy)pyridin-3-yl)carbamoyl)-3-(2-isopropylphenyl)azetidin-1-yl)sulfonyl)propanoic acid]
21 | 89 | Cc1ccc(NC(=O)C2(c3ccccc3C3=CCCC3)CN(C(=O)CC(C)(C)C(=O)O)C2)c(OC(F)F)n1 [Ex 31-4, 4-(3-(2-(cyclopent-1-en-1-yl)phenyl)-3-((2-(difluoromethoxy)-6-methylpyridin-3-yl)carbamoyl)azetidin-1-yl)-2,2-dimethyl-4-oxobutanoic acid]
22 | 40 | Cc1ccc(C2(C(=O)Nc3ccc(C)nc3OC(F)F)CN(C(=O)CC(C)(C)C(=O)O)C2)c(C(C)C)c1 [Ex 39-3, 4-(3-((2-(difluoromethoxy)-6-methylpyridin-3-yl)carbamoyl)-3-(2-isopropyl-4-methylphenyl)azetidin-1-yl)-2,2-dimethyl-4-oxobutanoic acid]
23 | 18 | COC(=O)CC(C)(C)NC(=O)N1CC(C(=O)Nc2ccc(C)nc2OC(F)F)(c2ccccc2C(C)C)C1 [Ex 17-1, Methyl 3-(3-((2-(difluoromethoxy)-6-methylpyridin-3-yl)carbamoyl)-3-(2-isopropylphenyl)azetidine-1-carboxamido)-3-methylbutanoate]
24 | 10 | CC(C)c1ccccc1C1(C(=O)Nc2cccnc2OC(F)F)CN(S(N)(=O)=O)C1 [Ex 15-6, N-(2-(difluoromethoxy)pyridin-3-yl)-3-(2-isopropylphenyl)-1-sulfamoylazetidine-3-carboxamide]
25 | 65 | COC(=O)C(C)(C)CC(=O)N1CC(C(=O)Nc2ncc(Br)cc2OC(F)F)(c2ccccc2C(C)C)C1 [Ex 79-1, Methyl 4-(3-((5-bromo-3-(difluoromethoxy)pyridin-2-yl)carbamoyl)-3-(2-isopropylphenyl)azetidin-1-yl)-2,2-dimethyl-4-oxobutanoate]
26 | 28 | COC(CC(=O)O)S(=O)(=O)N1CC(C(=O)Nc2ccc(C)nc2OC(F)F)(c2ccccc2C(C)C)C1 (stereo not drawn) [Ex 13-27, 3-((3-((2-(difluoromethoxy)-6-methylpyridin-3-yl)carbamoyl)-3-(2-isopropylphenyl)azetidin-1-yl)sulfonyl)-3-methoxypropanoic acid]
27 | 8 | CCCc1ccccc1C1(C(=O)Nc2ccc(C)nc2OC(F)F)CN(C(=O)CC(C)(C)C(=O)O)C1 [Ex 31-7, 4-(3-((2-(difluoromethoxy)-6-methylpyridin-3-yl)carbamoyl)-3-(2-propylphenyl)azetidin-1-yl)-2,2-dimethyl-4-oxobutanoic acid]
28 | 2 | COC(=O)C1(c2ncc(N3CC(C(=O)Nc4ccc(C)nc4OC(F)F)(c4ccccc4C(C)C)C3)cn2)CC1 [Ex 18-16, methyl 1-(5-(3-((2-(difluoromethoxy)-6-methylpyridin-3-yl)carbamoyl)-3-(2-isopropylphenyl)azetidin-1-yl)pyrimidin-2-yl)cyclopropane-1-carboxylate]
29 | 2 | Cc1ccc(NC(=O)C2(c3ccccc3C(C)C)CN(c3ncncc3F)C2)c(OC(F)F)n1 [Ex 18-20, N-(2-(difluoromethoxy)-6-methylpyridin-3-yl)-1-(5-fluoropyrimidin-4-yl)-3-(2-isopropylphenyl)azetidine-3-carboxamide]
30 | 4.3 | Cc1ccc(NC(=O)C2(c3ccccc3C(C)C)CCN(C(=O)OCC(=O)O)CC2)c(OC(F)F)n1 [Ex 14-2, 2-((4-((2-(difluoromethoxy)-6-methylpyridin-3-yl)carbamoyl)-4-(2-isopropylphenyl)piperidine-1-carbonyl)oxy)acetic acid]
